# Test system: NHEKs
# Assay: Anti-oxidant activity: ROS production (DCFH probe) under TBP stress
# Assay type: cell-based, human
# Conditions: TBP 5 mM; positive control at 200 μM, 24 h pre-incubation
# Protocol: NHEKs were seeded in a black plate with a glass bottom at 20′000 cells per well pre-coated with type I collagen. Cells were incubated at 37° C. with 5% CO2 for 24 h. On the next day, the cells were incubated for 24 h with the patchouli extracts and some of the fractions thereof described in examples 1 and 2 above, each at 0.5% (v/v), or Resveratrol (positive control) at 200 μM. After this pre-incubation, the cells were incubated with dichloro-dihydro-fluorescein (DCFH) probe at 50 μM for 30-45 min. The cells were then rinsed two times with PBS and incubated with PBS alone or with PBS containing 5 mM tert-butyl peroxide (TBP) to induce an oxidative stress. Fluorescence reading was performed every 10 min for 1 h, exciting at 488 nm and emitting at 525 nm.
smiles,measurement,value
Oc1ccc(C=Cc2cc(O)cc(O)c2)cc1 [Resveratrol],"ROS Production [% of TBP, untreated] Average","18 % of TBP, untreated"
